Source: US10961202B2, “Bis-benzimidazole compounds and methods of using the same” (THE SCRIPPS RESEARCH INSTITUTE, priority 2017, dated 2021)

Each molecule was assayed on r(CUG)12-MBNL1 complex (assay: Inhibition of the r(CUG)12-MBNL1 complex measured by TR-FRET). Details: Table L; 80 nM RNA, 60 nM MBNL1-His6.
Format: biochemical

Compared with N#Cc1ccc2nc(-c3ccc(-c4nc5ccc(C6=NCCN6)cc5[nH]4)cc3)[nH]c2c1 [Compound 13, 2-(4-(6-(4,5-dihydro-1H-imidazol-2-yl)-1H-benzo[d]imidazol-2-yl)phenyl)-1H-benzo[d]imidazole-6-carbonitrile], c1cc2nc(-c3ccc(-c4nc5ccc(C6=NCCN6)cc5[nH]4)cc3)[nH]c2cc1C1=NCCN1 [Compound 14, 1,4-bis(6-(4,5-dihydro-1H-imidazol-2-yl)-1H-benzo[d]imidazol-2-yl)benzene] is 4.4-fold lower in IC50: 48 µM for the first, 11 µM for the second.

Compared with CN(C)CCNC(=O)c1ccc2nc(-c3ccc(-c4nc5ccc(C#N)cc5[nH]4)cc3)[nH]c2c1 [Compound 15], CNCCNC(=O)c1ccc2nc(-c3ccc(-c4nc5ccc(C(=O)NCCN(C)C)cc5[nH]4)cc3)[nH]c2c1 [Compound 27, N-(2-(dimethylamino)ethyl)-2-(4-(6-((2-(methylamino)ethyl)carbamoyl)-1H-benzo[d]imidazol-2-yl)phenyl)-1H-benzo[d]imidazole-6-carboxamide] is 3.7-fold lower in IC50: 45 µM for the first, 12.3 µM for the second.

CCOC(CNC(=N)Nc1ccc2nc(-c3ccc(-c4nc5ccc(N)cc5[nH]4)cc3)[nH]c2c1)OCC [Compound 17, 1-(2-(4-(5-amino-1H-benzo[d]imidazol-2-yl)phenyl)-1H-benzo[d]imidazol-5-yl)-3-(2,2-diethoxyethyl)guanidine] and CCOC(CNC(=N)Nc1ccc2nc(-c3ccc(-c4nc5ccc(NC(=N)NCC(OCC)OCC)cc5[nH]4)cc3)[nH]c2c1)OCC [Compound 18, 1,1′-(2,2′-(1,4-phenylene)bis(1H-benzo[d]imidazole-5,2-diyl))bis(3-(2,2-diethoxyethyl)guanidine)] are within 1.5-fold of each other in IC50: 37 µM for the first, 35 µM for the second.

Compared with Nc1ccc2nc(-c3ccc(-c4nc5ccc(Nc6ncc[nH]6)cc5[nH]4)cc3)[nH]c2c1 [Compound 19, 2-(4-(5-amino-1H-benzo[d]imidazol-2-yl)phenyl)-N-(1H-imidazol-2-yl)-1H-benzo[d]imidazol-5-amine], Nc1ccc2nc(-c3ccc(-c4nc5ccc(Nc6ccccn6)cc5[nH]4)cc3)[nH]c2c1 [Compound 21, 2-(4-(5-amino-1H-benzo[d]imidazol-2-yl)phenyl)-N-(pyridin-2-yl)-1H-benzo[d]imidazol-5-amine] is 4.4-fold higher in IC50: 34 µM for the first, 150 µM for the second. The first is the more potent here.

Compared with c1cn(-c2ccc3nc(-c4ccc(-c5nc6ccc(-n7ccnc7)cc6[nH]5)cc4)[nH]c3c2)cn1 [Compound 20, 1,4-bis(6-(1H-imidazol-1-yl)-1H-benzo[d]imidazol-2-yl)benzene], c1ccc(Nc2ccc3nc(-c4ccc(-c5nc6ccc(Nc7ccccn7)cc6[nH]5)cc4)[nH]c3c2)nc1 [Compound 22, 2,2′-(1,4-phenylene)bis(N-(pyridin-2-yl)-1H-benzo[d]imidazol-5-amine)] is lower in IC50: greater than 200 µM for the first, 169 µM for the second.

Compared with CC(C)(C)OC(=O)N1CCN=C1Nc1ccc2[nH]c(-c3ccc(-c4nc5cc(N)ccc5[nH]4)cc3)nc2c1 [Compound 23, tert-butyl 2-((2-(4-(5-amino-1H-benzo[d]imidazol-2-yl)phenyl)-1H-benzo[d]imidazol-5-yl)amino)-4,5-dihydro-1H-imidazole-1-carboxylate], Nc1ccc2[nH]c(-c3ccc(-c4nc5cc(NC6=NCCN6)ccc5[nH]4)cc3)nc2c1 [Compound 24, 2-(4-(5-amino-1H-benzo[d]imidazol-2-yl)phenyl)-N-(4,5-dihydro-1H-imidazol-2-yl)-1H-benzo[d]imidazol-5-amine] is 1.6-fold lower in IC50: 55 µM for the first, 35 µM for the second. The second is the more potent here.

Going from N=C(NO)c1ccc2nc(-c3ccc(-c4nc5ccc(C(=N)NO)cc5[nH]4)cc3)[nH]c2c1 [Compound 25, 2,2′-(1,4-phenylene)bis(N-hydroxy-1H-benzo[d]imidazole-6-carboximidamide)] to N=C(N)c1ccc2nc(-c3ccc(-c4nc5ccc(C(=N)N)cc5[nH]4)cc3)[nH]c2c1 [Compound 26, 2,2′-(1,4-phenylene)bis(1H-benzo[d]imidazole-6-carboximidamide) acetate], the IC50 falls from 144 µM to 6.6 µM (22-fold).
